From patent publication US6358885B1, “Substituted phenylheterocyclic herbicides” (Mississippi State University, priority 1992, dated 2002)

Assays:
lambsquarters = assay: Test C preemergence/postemergence greenhouse plant response rating 0 to 100; assay type: in vivo, Chenopodium album; conditions: POSTEMERGENCE
How it was run: (§1)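 Compounds in non-phytotoxic solvent went onto sandy loam before emergence (seeded one day earlier) or onto plants at the one-to-four leaf stage. Duck salad was treated via flood water (~2.5 cm, maintained) over silt loam.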

blackgrass [1] = assay: Test B preemergence/postemergence greenhouse plant response rating 0 to 10; assay type: in vivo, Alopecurus myosuroides; conditions: 0 to 10 scale
How it was run: (§2)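 Planted seeds are treated preemergence with compound dissolved in a non-phytotoxic solvent, while postemergence applications go onto plants of two to eighteen cm. Plants stay in the greenhouse twelve to sixteen days and are then rated visually relative to controls.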

cocklebur = assay: as above; assay type: in vivo, Xanthium pensylvanicum; conditions: 0 to 10 scale
How it was run: as §2

giant foxtail = assay: Test C preemergence/postemergence greenhouse plant response rating 0 to 100; assay type: in vivo, Setaria faberii; conditions: POSTEMERGENCE
How it was run: as §1

blackgrass [2] = assay: as above; assay type: in vivo, Alopecurus myosuroides; conditions: POSTEMERGENCE
How it was run: as §1

barley = assay: Test B preemergence/postemergence greenhouse plant response rating 0 to 10; assay type: in vivo, Hordeum vulgare; conditions: 0 to 10 scale
How it was run: as §2

cotton = assay: as above; assay type: in vivo, Gossypium hirsutum; conditions: 0 to 10 scale
How it was run: as §2

rape = assay: Test C preemergence/postemergence greenhouse plant response rating 0 to 100; assay type: in vivo, Brassica napus; conditions: POSTEMERGENCE
How it was run: as §1

bedstraw = assay: Test B preemergence/postemergence greenhouse plant response rating 0 to 10; assay type: in vivo, Galium aparine; conditions: 0 to 10 scale
How it was run: as §2

duck salad = assay: Test C flood test plant response rating 0 to 100; assay type: in vivo, Heteranthera limosa
How it was run: as §1

sugar beet = assay: Test C preemergence/postemergence greenhouse plant response rating 0 to 100; assay type: in vivo, Beta vulgaris; conditions: POSTEMERGENCE
How it was run: as §1

wild buckwheat = assay: Test B preemergence/postemergence greenhouse plant response rating 0 to 10; assay type: in vivo, Polygonum convolvulus; conditions: 0 to 10 scale
How it was run: as §2

corn = assay: Test C preemergence/postemergence greenhouse plant response rating 0 to 100; assay type: in vivo, Zea mays; conditions: POSTEMERGENCE
How it was run: as §1

wheat = assay: as above; assay type: in vivo, Triticum aestivum; conditions: POSTEMERGENCE
How it was run: as §1

ryegrass = assay: as above; assay type: in vivo, Lolium multiflorum; conditions: POSTEMERGENCE
How it was run: as §1

cheatgrass = assay: Test B preemergence/postemergence greenhouse plant response rating 0 to 10; assay type: in vivo, Bromus secalinus; conditions: 0 to 10 scale
How it was run: as §2

rice = assay: as above; assay type: in vivo, Oryza sativa; conditions: 0 to 10 scale
How it was run: as §2

barnyardgrass = assay: Test C flood test plant response rating 0 to 100; assay type: in vivo, Echinochloa crus-galli
How it was run: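 Compounds in non-phytotoxic solvent applied preemergence to sandy loam one day after planting, postemergence at the 1–4 leaf stage, or to ~2.5 cm floodwater over silt loam.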

[3] = POSTEMERGENCE section, flood test, Rate 1 g/ha
[4] = POSTEMERGENCE section, flood test, Rate 4 g/ha
[5] = Rate 16 g/ha, under POSTEMERGENCE head (flood test species)
[6] = flood test species listed under POSTEMERGENCE, 62 g/ha, 0 to 100 scale

COCN1C(=O)COc2cc(F)c(-c3nn4c(c3Cl)CCCC4)cc21 [Compound 55]
Plant response rating Lambsquarters (lambsquarters; 62 g/ha, 0 to 100 scale): 100
Plant response rating (0 to 100), Lambsquarters (lambsquarters; Rate 1 g/ha): 100
Plant response rating (0 to 100), Lambsquarters (lambsquarters; Rate 4 g/ha): 100
Plant response rating (0 to 100), Lambsquarters (lambsquarters; Rate 16 g/ha): 100
Plant response rating, Blackgrass (blackgrass [1]; POSTEMERGENCE, Rate 10 g/ha): 5
Plant response rating, Blackgrass (blackgrass [1]; POSTEMERGENCE, Rate 50 g/ha): 7
Plant response rating, Blackgrass (blackgrass [1]; PREEMERGENCE, Rate 10 g/ha): 3
Plant response rating, Blackgrass (blackgrass [1]; PREEMERGENCE, Rate 50 g/ha): 7
Plant response rating, Cocklebur (cocklebur; POSTEMERGENCE, Rate 10 g/ha): 10
Plant response rating, Cocklebur (cocklebur; POSTEMERGENCE, Rate 50 g/ha): 10
Plant response rating, Cocklebur (cocklebur; PREEMERGENCE, Rate 50 g/ha): 2
Plant response rating, Giant foxtail (giant foxtail; 62 g/ha, 0 to 100 scale): 50
Plant response rating (0 to 100), Giant foxtail (giant foxtail; Rate 1 g/ha): 20
Plant response rating (0 to 100), Giant foxtail (giant foxtail; Rate 4 g/ha): 30
Plant response rating (0 to 100), Giant foxtail (giant foxtail; Rate 16 g/ha): 40
Plant response rating, Blackgrass (blackgrass [2]; 62 g/ha, 0 to 100 scale): 60
Plant response rating (0 to 100), Blackgrass (blackgrass [2]; Rate 1 g/ha): 30
Plant response rating (0 to 100), Blackgrass (blackgrass [2]; Rate 4 g/ha): 40
Plant response rating (0 to 100), Blackgrass (blackgrass [2]; Rate 16 g/ha): 50
Plant response rating, Barley (barley; POSTEMERGENCE, Rate 10 g/ha): 5
Plant response rating, Barley (barley; POSTEMERGENCE, Rate 50 g/ha): 4
Plant response rating, Barley (barley; PREEMERGENCE, Rate 10 g/ha): 0
Plant response rating, Barley (barley; PREEMERGENCE, Rate 50 g/ha): 3
Plant response rating, Cotton (cotton; POSTEMERGENCE, Rate 10 g/ha): 10
Plant response rating, Cotton (cotton; POSTEMERGENCE, Rate 50 g/ha): 10
Plant response rating, Cotton (cotton; PREEMERGENCE, Rate 10 g/ha): 6
Plant response rating, Cotton (cotton; PREEMERGENCE, Rate 50 g/ha): 1
Plant response rating, Rape (rape; 62 g/ha, 0 to 100 scale): 100
Plant response rating (0 to 100), Rape (rape; Rate 1 g/ha): 60
Plant response rating (0 to 100), Rape (rape; Rate 4 g/ha): 100
Plant response rating (0 to 100), Rape (rape; Rate 16 g/ha): 100
Plant response rating, Bedstraw (bedstraw; POSTEMERGENCE, Rate 10 g/ha): 9
Plant response rating, Bedstraw (bedstraw; POSTEMERGENCE, Rate 50 g/ha): 10
Plant response rating, Bedstraw (bedstraw; PREEMERGENCE, Rate 10 g/ha): 3
Plant response rating, Bedstraw (bedstraw; PREEMERGENCE, Rate 50 g/ha): 10
Plant response rating (0 to 100), Duck salad (duck salad; [3]): 0
Plant response rating (0 to 100), Duck salad (duck salad; [4]): 0
Plant response rating (0 to 100), Duck salad (duck salad; [5]): 10
Plant response rating Duck salad (duck salad; [6]): 50
Plant response rating, Sugar beet (sugar beet; 62 g/ha, 0 to 100 scale): 100
Plant response rating (0 to 100), Sugar beet (sugar beet; Rate 1 g/ha): 100
Plant response rating (0 to 100), Sugar beet (sugar beet; Rate 4 g/ha): 100
Plant response rating (0 to 100), Sugar beet (sugar beet; Rate 16 g/ha): 100
Plant response rating, Wild buckwheat (wild buckwheat; POSTEMERGENCE, Rate 10 g/ha): 10
Plant response rating, Wild buckwheat (wild buckwheat; POSTEMERGENCE, Rate 50 g/ha): 0
Plant response rating, Wild buckwheat (wild buckwheat; PREEMERGENCE, Rate 50 g/ha): 10
Plant response rating, Corn (corn; 62 g/ha, 0 to 100 scale): 50
Plant response rating (0 to 100), Corn (corn; Rate 1 g/ha): 30
Plant response rating (0 to 100), Corn (corn; Rate 4 g/ha): 40
Plant response rating (0 to 100), Corn (corn; Rate 16 g/ha): 50
Plant response rating, Wheat (wheat; 62 g/ha, 0 to 100 scale): 60
Plant response rating (0 to 100), Wheat (wheat; Rate 1 g/ha): 30
Plant response rating (0 to 100), Wheat (wheat; Rate 4 g/ha): 40
Plant response rating (0 to 100), Wheat (wheat; Rate 16 g/ha): 50
Plant response rating Ryegrass (ryegrass; 62 g/ha, 0 to 100 scale): 60
Plant response rating (0 to 100), Ryegrass (ryegrass; Rate 1 g/ha): 10
Plant response rating (0 to 100), Ryegrass (ryegrass; Rate 4 g/ha): 30
Plant response rating (0 to 100), Ryegrass (ryegrass; Rate 16 g/ha): 40
Plant response rating, Cheatgrass (cheatgrass; POSTEMERGENCE, Rate 10 g/ha): 6
Plant response rating, Cheatgrass (cheatgrass; POSTEMERGENCE, Rate 50 g/ha): 8
Plant response rating, Cheatgrass (cheatgrass; PREEMERGENCE, Rate 10 g/ha): 1
Plant response rating, Cheatgrass (cheatgrass; PREEMERGENCE, Rate 50 g/ha): 5
Plant response rating, Rice (rice; POSTEMERGENCE, Rate 10 g/ha): 3
Plant response rating, Rice (rice; POSTEMERGENCE, Rate 50 g/ha): 4
Plant response rating, Rice (rice; PREEMERGENCE, Rate 50 g/ha): 0
Plant response rating (0 to 100), Barnyardgrass 2 (barnyardgrass; [3]): 10
Plant response rating (0 to 100), Barnyardgrass 2 (barnyardgrass; [4]): 60
Plant response rating (0 to 100), Barnyardgrass 2 (barnyardgrass; [5]): 90
Plant response rating Barnyardgrass 2 (barnyardgrass; [6]): 100
